Results as given in patent US20090304625A1, “MODULATORS OF CARDIAC CELL HYPERTROPHY AND HYPERPLASIA” (priority 2006, published 2009).

Key:
[1] = tested on: tumor cells grown in culture; details: cited from earlier work
[2] = tested on: human umbilical vein endothelial cells; details: in culture, cited from earlier work
[3] = tested on: subcutaneous xenograft tumors; details: cited from earlier work; for growth of tumor cells grown as subcutaneous xenografts: athymic mice
tumor angiogenesis = details: mouse tumor xenograft models; cited from earlier work
c-kit+ CSCs = assay: c-kit+ cardiac stem cell numbers in LV of 7-day-SAC WT mice; assay type: in vivo, mouse; details: cromolyn 60 mg/kg/day started 7 days before SAC, n=5
Description: Induction of pressure overload: At eight weeks of age, WT or Kit^w/Kit^w-v mice were subjected to suprarenal aortic constriction (SAC) to induce hypertension and, thus, pressure overload, or to sham operation, as previously described (M. Li et al. (2004)). One group (both SAC and sham-operated animals) was allowed to recover from surgery for 2 days and animals surviving this peri-operative period were then followed for survival over the next 28 days. A second group were sacrificed at 3, 7 or 14 days after SAC, and a third group was treated with the mast cell stabilizer, sodium chromoglycate (60 mg/kg/day, intraperitoneal, osmotic minipump) for one week before and then for the 7 days after surgery, at which time they were sacrificed. […] There are several different but overlapping types of CSCs, which are grouped according to cell surface markers, e.g., ckit+, Sca1+, MDR1+, isl1+, e-kit+ CSCs differentiated into cardiomyocytes contributing to repair of a damaged heart. […] In the W/W^v- and WT-SAC LV myocardium, c-kit^+ CSCs occurred individually, in pairs or in large clusters. c-kit^+ CSC clusters were not seen in the LVs of WT- or […] were rare in WT-SAC mice. Compared to sham controls, 7 days of SAC increased c-kit^+ CSCs 19-fold in the […]<0.001; FIG. 6A). Compared to the WT-SAC LV, the increase was 5.5-fold (P<0.01; FIG. 6A). […]

mast cells (MCs) = assay: Mast cell density in LV of WT mice treated with cromolyn; assay type: in vivo, mouse; details: cromolyn 60 mg/kg/day
Description: Induction of pressure overload: At eight weeks of age, WT or Kit^w/Kit^w-v mice were subjected to suprarenal aortic constriction (SAC) to induce hypertension and, thus, pressure overload, or to sham operation, as previously described (M. Li et al. (2004)). One group (both SAC and sham-operated animals) was allowed to recover from surgery for 2 days and animals surviving this peri-operative period were then followed for survival over the next 28 days. A second group were sacrificed at 3, 7 or 14 days after SAC, and a third group was treated with the mast cell stabilizer, sodium chromoglycate (60 mg/kg/day, intraperitoneal, osmotic minipump) for one week before and then for the 7 days after surgery, at which time they were sacrificed.

Row | SMILES | growth of tumor cells grown in culture [1] | VEGF-induced proliferation of human umbilical vein endothelial cells ([2]; VEGF-induced) | growth of tumor cells grown as subcutaneous xenografts [3] | tumor angiogenesis in vivo (tumor angiogenesis) | VEGF- and FGF-induced proliferation of human umbilical vein endothelial cells ([2]; VEGF- and FGF-induced) | regression of established xenograft tumors ([3]; mice) | c-kit+ CSCs (c-kit+ CSCs) [CSCs/mm^2] | reduction of MC density (mast cells (MCs)) | MC density (mast cells (MCs); n=4) [MCs/mm^2]
1 | Cc1cc(C)c(/C=C2\C(=O)Nc3ccccc32)[nH]1 [SU5416] | neither compound potently inhibits | inhibits | inhibit the growth | inhibit tumor angiogenesis in vivo | – | – | – | – | –
2 | Cc1[nH]c(/C=C2\C(=O)Nc3ccccc32)c(C)c1CCC(=O)O [SU6668] | neither compound potently inhibits | – | inhibit the growth | inhibit tumor angiogenesis in vivo | inhibits | causes regression | – | – | –
3 | O=C(O)c1cc(=O)c2c(OCC(O)COc3cccc4oc(C(=O)O)cc(=O)c34)cccc2o1 [cromolyn, sodium chromoglycate] | – | – | – | – | – | – | 38±3 | approximately 80% | 0.45±0.2
